# According to ChEMBL document CHEMBL1126212, “A peptide-acridine conjugate with ribonucleolytic activity” (1992):
# Peptide text beside a SMILES is read from it. * marks the point of attachment. Acridine9carbonyl = O=C(c1c2ccccc2nc2ccccc12)*
# Tested on: Escherichia coli
# Assay: Evaluated for the ribosomal RNA cleavage using Gel-permeation analysis as difference in retention time
# Format: functional
row,Compound,Difference in retention time [min]
1,N[C@@H](Cc1c[nH]cn1)C(=O)N1CCC[C@H]1C(=O)N[C@@H](Cc1c[nH]cn1)C(=O)N[C@@H](CCCCNC(=O)c1c2ccccc2nc2ccccc12)C(=O)O (H-HPHK(Acridine9carbonyl)-OH),3.4
2,Cc1ccc2nc3ccccc3c(C=O)c2c1,0.3
3,NCCCC[C@H](NC(=O)[C@H](Cc1c[nH]cn1)NC(=O)[C@@H]1CCCN1C(=O)[C@@H](N)Cc1c[nH]cn1)C(N)=O (H-HPHK-NH2),0.2
